In patent publication US9708314B2, “Heterocyclic amide compound” (NISSAN CHEMICAL INDUSTRIES, LTD., priority 2013, dated 2017):

How the values were obtained:
Format in all cases: in vivo
[1] = tested on: Echinochloa crus-galli var. crus-galli; assay: Test Example 3: herbicidal effect by application to foliage (Wagner pot, water depth 0.1-0.5 cm); conditions: Nineteenth Table; for H (herbicidal effect grade): application to foliage
In short: (§1)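 A small sprayer delivered the diluted emulsion uniformly to foliage at the chosen rate in g/ha, 14 days after sowing in Wagner pots held at 25–30 °C. Outcome: 0–5 herbicidal-ratio score read three weeks post-treatment.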

Leptochloa chinensis = assay: as above; conditions: Nineteenth Table; for D (herbicidal effect grade): application to foliage
In short: as §1

Cyperus difformis = assay: as above; conditions: Nineteenth Table; for E (herbicidal effect grade): application to foliage
In short: as §1

[2] = tested on: Echinochloa crus-galli var. crus-galli; assay: Test Example 4: herbicidal effect by application to foliage (diluvial soil, plastic box); conditions: for H (Echinochloa crus-galli var. crus-galli) herbicidal effect: application to foliage, application herbicide amount 320 g/ha
In short: (§2)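 Greenhouse plants (25° C. to 30° C., 14 d, diluvial soil) receive a foliar spray of water-diluted emulsifiable formulation at defined g/ha. Grading after 3 weeks uses a six-step herbicidal-ratio scale, with 4 covering 70% to <90% and 1 covering 5% to <20%.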

Galium spurium = assay: as above; conditions: for Q (Galium spurium) herbicidal effect: application to foliage, application herbicide amount 320 g/ha
In short: as §2

Abutilon theophrasti = assay: as above; conditions: for M (Abutilon theophrasti) herbicidal effect: application to foliage, application herbicide amount 320 g/ha
In short: as §2

Alopecurus myosuroides = assay: as above; conditions: for J (Alopecurus myosuroides) herbicidal effect: application to foliage, application herbicide amount 320 g/ha
In short: as §2

Avena fatua = assay: as above; conditions: for I (Avena fatua) herbicidal effect: application to foliage, application herbicide amount 320 g/ha
In short: as §2

Veronica persica = assay: as above; conditions: for R (Veronica persica) herbicidal effect: application to foliage, application herbicide amount 320 g/ha
In short: as §2

Digitaria ciliaris = assay: as above; conditions: for F (Digitaria ciliaris) herbicidal effect: application to foliage, application herbicide amount 320 g/ha
In short: as §2

Chenopodium album = assay: as above; conditions: for O (Chenopodium album) herbicidal effect: application to foliage, application herbicide amount 320 g/ha
In short: as §2

Setaria viridis = assay: as above; conditions: for G (Setaria viridis) herbicidal effect: application to foliage, application herbicide amount 320 g/ha
In short: as §2

Lolium multiflorum Lam. = assay: as above; conditions: for K (Lolium multiflorum Lam.) herbicidal effect: application to foliage, application herbicide amount 320 g/ha
In short: as §2

Apera spica-venti. = assay: as above; conditions: for L (Apera spica-venti.) herbicidal effect: application to foliage, application herbicide amount 320 g/ha
In short: as §2

[3] = application herbicide amount 320 g/ha
[4] = application herbicide amount 192 g/ha
[5] = Application herbicide amount 320 g/ha

Row | Structure (SMILES) | H (Echinochloa crus-galli var. crus-galli) herbicidal ratio grade [1, 3] | D (Leptochloa chinensis) herbicidal ratio grade (Leptochloa chinensis; [3]) | E (Cyperus difformis) herbicidal ratio grade (Cyperus difformis; [3]) | H (Echinochloa crus-galli var. crus-galli) herbicidal effect [2] | Q (Galium spurium) herbicidal effect (Galium spurium) | M (Abutilon theophrasti) herbicidal effect (Abutilon theophrasti) | J (Alopecurus myosuroides) herbicidal effect (Alopecurus myosuroides) | I (Avena fatua) herbicidal effect (Avena fatua) | R (Veronica persica) herbicidal effect (Veronica persica) | F (Digitaria ciliaris) herbicidal effect (Digitaria ciliaris) | O (Chenopodium album) herbicidal effect (Chenopodium album) | G (Setaria viridis) herbicidal effect (Setaria viridis) | K (Lolium multiflorum Lam.) herbicidal effect (Lolium multiflorum Lam.) | L (Apera spica-venti.) herbicidal effect (Apera spica-venti.) | other results
1 | COc1cccc(-c2nnc3c(C(=O)Nc4nnc(C)o4)ccc(C(F)(F)F)n23)c1 [1-046] | 5 (Herbicidal ratio of 90% or more (almost completely withered)) | 3 (Herbicidal ratio of 40% or more and less than 70%) | 3 (Herbicidal ratio of 40% or more and less than 70%) | 5 (Herbicidal ratio of 90% or more (almost completely withered)) | 2 (Herbicidal ratio of 20% or more and less than 40%) | 5 (Herbicidal ratio of 90% or more (almost completely withered)) | 0 (Herbicidal ratio of 5% or less (almost no effect)) | 1 (Herbicidal ratio of 5% or more and less than 20%) | 4 (Herbicidal ratio of 70% or more and less than 90%) | 5 (Herbicidal ratio of 90% or more (almost completely withered)) | 5 (Herbicidal ratio of 90% or more (almost completely withered)) | 5 (Herbicidal ratio of 90% or more (almost completely withered)) | 0 (Herbicidal ratio of 5% or less (almost no effect)) | 1 (Herbicidal ratio of 5% or more and less than 20%) | 
2 | Cc1ccc(-c2nnc3c(C(=O)Nc4nnc(C)o4)ccc(C(F)(F)F)n23)cc1 [1-043] | 5 (Herbicidal ratio of 90% or more (almost completely withered)) | 4 (Herbicidal ratio of 70% or more and less than 90%) | 5 (Herbicidal ratio of 90% or more (almost completely withered)) | 5 (Herbicidal ratio of 90% or more (almost completely withered)) | 3 (Herbicidal ratio of 40% or more and less than 70%) | 5 (Herbicidal ratio of 90% or more (almost completely withered)) | 1 (Herbicidal ratio of 5% or more and less than 20%) | 2 (Herbicidal ratio of 20% or more and less than 40%) | 4 (Herbicidal ratio of 70% or more and less than 90%) | 4 (Herbicidal ratio of 70% or more and less than 90%) | 5 (Herbicidal ratio of 90% or more (almost completely withered)) | 3 (Herbicidal ratio of 40% or more and less than 70%) | 1 (Herbicidal ratio of 5% or more and less than 20%) | 1 (Herbicidal ratio of 5% or more and less than 20%) | 
3 | Cc1nnc(NC(=O)c2ccc(C(F)(F)F)n3c(CC(=O)OC(C)C)nnc23)o1 [1-049] | 5 (Herbicidal ratio of 90% or more (almost completely withered)) | 4 (Herbicidal ratio of 70% or more and less than 90%) | 4 (Herbicidal ratio of 70% or more and less than 90%) | 5 (Herbicidal ratio of 90% or more (almost completely withered)) | 3 (Herbicidal ratio of 40% or more and less than 70%) | 5 (Herbicidal ratio of 90% or more (almost completely withered)) | 2 (Herbicidal ratio of 20% or more and less than 40%) | 0 (Herbicidal ratio of 5% or less (almost no effect)) | 4 (Herbicidal ratio of 70% or more and less than 90%) | 5 (Herbicidal ratio of 90% or more (almost completely withered)) | 5 (Herbicidal ratio of 90% or more (almost completely withered)) | 4 (Herbicidal ratio of 70% or more and less than 90%) | 2 (Herbicidal ratio of 20% or more and less than 40%) | 3 (Herbicidal ratio of 40% or more and less than 70%) | 
4 | CC(C)c1nnc2c(C(=O)Nc3nnco3)ccc(C(F)(F)F)n12 [1-050] | 5 (Herbicidal ratio of 90% or more (almost completely withered)) | 5 (Herbicidal ratio of 90% or more (almost completely withered)) | 5 (Herbicidal ratio of 90% or more (almost completely withered)) | 5 (Herbicidal ratio of 90% or more (almost completely withered)) | 2 (Herbicidal ratio of 20% or more and less than 40%) | 5 (Herbicidal ratio of 90% or more (almost completely withered)) | 2 (Herbicidal ratio of 20% or more and less than 40%) | 3 (Herbicidal ratio of 40% or more and less than 70%) | 5 (Herbicidal ratio of 90% or more (almost completely withered)) | 5 (Herbicidal ratio of 90% or more (almost completely withered)) | 5 (Herbicidal ratio of 90% or more (almost completely withered)) | 4 (Herbicidal ratio of 70% or more and less than 90%) | 3 (Herbicidal ratio of 40% or more and less than 70%) | 3 (Herbicidal ratio of 40% or more and less than 70%) | 
5 | Cc1cc(C(=O)Nc2nnnn2C)c2nnc(C(C)C)n2c1C(F)(F)F [2-050] |  |  |  |  |  |  |  |  |  |  |  |  |  |  | H (herbicidal effect grade) [1, 4]: 4 (Herbicidal ratio of 70% or more and less than 90%); D (herbicidal effect grade) (Leptochloa chinensis; [4]): 3 (Herbicidal ratio of 40% or more and less than 70%); E (herbicidal effect grade) (Cyperus difformis; [4]): 3 (Herbicidal ratio of 40% or more and less than 70%); H (Echinochloa crus-galli var. crus-galli) herbicidal effect grade ([2]; foliage application, 192 g/ha): 3 (Herbicidal ratio of 40% or more and less than 70%); Q (Galium spurium) herbicidal effect grade (Galium spurium; foliage application, 192 g/ha): 0 (Herbicidal ratio of 5% or less (almost no effect)); M (Abutilon theophrasti) herbicidal effect grade (Abutilon theophrasti; foliage application, 192 g/ha): 3 (Herbicidal ratio of 40% or more and less than 70%); J (Alopecurus myosuroides) herbicidal effect grade (Alopecurus myosuroides; foliage application, 192 g/ha): 0 (Herbicidal ratio of 5% or less (almost no effect)); I (Avena fatua) herbicidal effect grade (Avena fatua; foliage application, 192 g/ha): 2 (Herbicidal ratio of 20% or more and less than 40%); R (Veronica persica) herbicidal effect grade (Veronica persica; foliage application, 192 g/ha): 3 (Herbicidal ratio of 40% or more and less than 70%); F (Digitaria ciliaris) herbicidal effect grade (Digitaria ciliaris; foliage application, 192 g/ha): 3 (Herbicidal ratio of 40% or more and less than 70%); O (Chenopodium album) herbicidal effect grade (Chenopodium album; foliage application, 192 g/ha): 5 (Herbicidal ratio of 90% or more (almost completely withered)); G (Setaria viridis) herbicidal effect grade (Setaria viridis; foliage application, 192 g/ha): 1 (Herbicidal ratio of 5% or more and less than 20%); K (Lolium multiflorum Lam.) herbicidal effect grade (Lolium multiflorum Lam.; foliage application, 192 g/ha): 0 (Herbicidal ratio of 5% or less (almost no effect)); L (Apera spica-venti.) herbicidal effect grade (Apera spica-venti.; foliage application, 192 g/ha): 0 (Herbicidal ratio of 5% or less (almost no effect))
6 | CCC[S+]([O-])c1nnc2c(C(=O)Nc3nnc(C)o3)ccc(C(F)(F)F)n12 (stereo not drawn) [1-092] |  |  |  |  |  |  |  |  |  |  |  |  |  |  | H (herbicidal effect grade) [1, 3]: 5 (Herbicidal ratio of 90% or more (almost completely withered)); D (herbicidal effect grade) (Leptochloa chinensis; [3]): 5 (Herbicidal ratio of 90% or more (almost completely withered)); E (herbicidal effect grade) (Cyperus difformis; [3]): 5 (Herbicidal ratio of 90% or more (almost completely withered)); H [2, 5]: 5 (Herbicidal ratio of 90% or more (almost completely withered)); Q (Galium spurium; [5]): 3 (Herbicidal ratio of 40% or more and less than 70%); M (Abutilon theophrasti; [5]): 4 (Herbicidal ratio of 70% or more and less than 90%); J (Alopecurus myosuroides; [5]): 1 (Herbicidal ratio of 5% or more and less than 20%); I (Avena fatua; [5]): 2 (Herbicidal ratio of 20% or more and less than 40%); R (Veronica persica; [5]): 5 (Herbicidal ratio of 90% or more (almost completely withered)); F (Digitaria ciliaris; [5]): 5 (Herbicidal ratio of 90% or more (almost completely withered)); O (Chenopodium album; [5]): 5 (Herbicidal ratio of 90% or more (almost completely withered)); G (Setaria viridis; [5]): 5 (Herbicidal ratio of 90% or more (almost completely withered)); K (Lolium multiflorum Lam.; [5]): 1 (Herbicidal ratio of 5% or more and less than 20%); L (Apera spica-venti.; [5]): 1 (Herbicidal ratio of 5% or more and less than 20%)
